# Key:
# [1] = target: T1, human neutrophil azurocidin (Homo sapiens, UniProt P20160); experiment: Suppression of azurocidin-induced BRB breakdown (Evans Blue); format: in vivo, Brown Norway rats
# T1 construct: purchased Athens Research and Biotechology, Atlanta, Ga
# T1 sequence (P20160 27-248): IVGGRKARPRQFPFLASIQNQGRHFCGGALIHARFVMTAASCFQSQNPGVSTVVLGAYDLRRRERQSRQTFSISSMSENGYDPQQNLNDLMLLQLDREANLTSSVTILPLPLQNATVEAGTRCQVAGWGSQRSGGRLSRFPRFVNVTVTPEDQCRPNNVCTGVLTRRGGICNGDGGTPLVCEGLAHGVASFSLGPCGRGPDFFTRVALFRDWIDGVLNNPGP
# Method: (§1) This study employed Brown Norway rats, AZ (1 μg, 10 μg, 20 μg), PBS, aprotinin, VEGF164, and polyclonal anti-AZ antibody (1 μg). Briefly, Brown Norway rats received intravitreal injections of AZ (1 μg, 10 μg and 20 μg) in one eye and PBS in the contralateral eye. BRB breakdown was quantified using the Evans Blue (EB) technique at 1 hour, 3 hours, and 24 hours after intravitreal injection of AZ or PBS. To assess whether AZ induced retinal leukostasis, firm leukocyte adhesion was quantified at 3 hours and 24 hours post AZ injection (10 μg) using the ex vivo conconavalin leukostasis assay. To block AZ, rats were treated with a single intravenous injection of aprotinin (30,000KIU), prior to the intravitreal injections. To investigate whether AZ was involved in VEGF-induced BRB breakdown, rats received intravitreal injections of 50 ng recombinant mouse VEGF164 in one eye and PBS in the other eye and were treated intravenously with aprotinin (50,000KIU every eight hours) or polyclonal anti-AZ antibody (1 μg). BRB breakdown and retinal leukostasis were quantified 24 hours after VEGF injection.
# In a second group, the rats were additionally treated intravenously with the azurocidin inhibitor, aprotinin (Trasylol®, Bayer Pharmaceuticals). […] The retinas were analyzed one hour after azurocidin administration using the Evans Blue technique.
# Retinal vascular permeability was quantified as previously described (Qaum et al. (2002) supra, Xu et al. (2001) INVEST. OPHTHALMOL. VIS. SCI. 42; 789-94). […] The background-subtracted absorbance was determined by measuring each sample at 620 nm (the absorbance maximum for Evans blue dye in formamide) and 740 nm (the absorbance minimum) with a spectrophotometer. The concentration of dye in the plasma was calculated from a standard curve of Evans blue dye in formamide. […] The background-subtracted absorbance was determined by measuring each sample at 620 nm (the absorbance maximum for Evans blue dye in formamide) and 740 nm (the absorbance minimum). The concentration of dye in the extracts was calculated from a standard curve of Evans blue dye in formamide. […]
# [2] = test system: VEGF-induced retinal leukostasis; experiment: Concanavalin A ex vivo retinal leukostasis quantification, VEGF-induced; format: in vivo, Brown Norway rats
# Method: as §1
# Deep anesthesia was induced with xylazine and ketamine as above. The chest cavity was carefully opened and the left ventricle was entered with a 14-gauge perfusion cannula fixed to a vessel clamp; care was taken to avoid ventricular obstruction. The right atrium was opened with a 12-gauge needle to achieve outflow. With the heart providing the motive force, 250 ml/kg PBS (roughly 30 ml of PBS quickly) was perfused to clear erythrocytes and non-sticking leukocytes, followed by perfusion with FITC-coupled Concanavalin A lectin (20 μg/ml in PBS, pH 7.4, total concentration 5 mg/kg) (Vector Labs, Burlingame, Calif.). The latter stained adherent leukocytes and the vascular endothelium. Lectin staining was followed by PBS perfusion (30 ml quickly).
# The retinas were flat-mounted in a water-based fluorescence-anti-fading medium (Southern Biotechnology, Birmingham, Ala.) and imaged via fluorescence microscopy (Leica upright microscope, Hamamatsu digital high sensitivity camera, openlab imaging software). The total number of adherent leukocytes per retina was counted in a masked fashion.
substance,measurement,setting,value
aprotinin,basal levels of retinal vascular leakage,[1]; aprotinin treatment alone (PBS-injected eye),did not affect basal levels of retinal vascular leakage
same,block of AZ-induced leakage,"[1]; single i.v. 30,000KIU 1 hour before intravitreal azurocidin 20 μg, Evans Blue 1 hour later",greater than 98%
same,Evans Blue retinal leakage in AZ-injected eyes,"[1]; single i.v. 30,000KIU 1 hour before intravitreal azurocidin, AZ alone 45±17",6±0.64 μl plasma/g retina/h
same,leukocyte adhesion as a percentage of leukocyte adhesion in the contralateral PBS-injected eye,"[2]; 24 hours after 50 ng VEGF, aprotinin 50,000 KIU i.v. 1 hour before, 8 and 16 hours after",252%
same,"leukocyte adhesion, VEGF-injected vs VEGF- and aprotinin-treated eyes",[2]; P>0.05,did not differ significantly

# — patent US20070248646A1, “Use of azurocidin inhibitors in prevention and treatment of ocular vascular leakage” (priority 2006, published 2007)
